Data set [1] deals with MCF-7. The note with it: breast cancer; 48 h of drug treatment; average of three experiments; cited from earlier work.
For data set [2], the system named is HeLa. The note with it: cervical cancer; 48 h of drug treatment; average of three experiments; cited from earlier work.
The subject of data set [3] is A549. The note with it: lung cancer; 48 h of drug treatment; average of three experiments; cited from earlier work.
The test system of data set [4] is A549, MCF-7, B16, HeLa and NIH3T3 cell lines. Kind of data set: MTT cytotoxicity assay, all the cell lines tested. It counts as cell-based. The note with it: summary over A549, MCF-7, B16, HeLa, read-out: IC50 against all the cell lines tested. From the text:
(§1) The N-((1-phenyl-9H-pyrido[3,4-b]indol-3-yl)methyl)cinnamamides (1a-h, 2a-h and 3a-h) have been tested against five human cancer cell lines such as A549 (lung cancer), MCF-7 (breast cancer), B16 (melanoma), HeLa (cervical cancer) and NIH3T3 (mouse embryonic fibroblast cancer). All the cancer cell lines (HeLa, A549, MCF-7 and B16) were procured from National Centre for Cell Sciences (NCCS, Pune, India) and NIH 3T3 cell line was obtained from American Type Culture Collection (Rockville, Md., USA). Stock cells were cultured in DMEM supplemented with 10% Fetal Bovine Serum (FBS), in an humidified atmosphere of 5% CO2 at 37° C. until they are 80% confluent. To study the cytotoxicity of the compounds, after 80% confluence, cells were trypsinized with 0.1% trypsin-EDTA and harvested by centrifugation at 500×g. […] The cell viability was determined by measuring the ability of cells to transform MTT to a purple coloured formazan dye. The absorbance of samples at 570 nm was measured using a UV-Visible spectrophotometer. Percentage of viable cells was calculated by using the formula given below.
(§2) Where the OD570 (sample) corresponds to absorbance obtained from the wells treated with compound and OD570 (control) represents the absorbance from the wells in which no compound was added.
A general note: Formazan colour is commonly taken as a measure of viable cells.

The subject of data set [5] is B16 (melanoma). The data set is described as follows: MTT cytotoxicity assay, B16. It counts as cell-based. Conditions: 48 h of drug treatment (footnote), average of three experiments.
Text: as §1, with “500×g. Serial dilutions of cells were made from 1×10^6 to 1×10^3 cells per mL The cells were seeded in triplicate in a 96 well plate. […].” for “500×g.”
(§3) Where the OD570 (sample) corresponds to absorbance obtained from the wells treated with compound and OD570 (control) represents the absorbance from the wells in which no compound was added. For these compounds results are expressed as half maximal inhibitory concentration (IC50) values and the anticancer activity data of 1a-h, 2a-h and 3a-h are shown in Table 2.

Data set [6] relates to NIH3T3 (mouse embryonic fibroblast cell line). The data set is described as follows: MTT cytotoxicity assay, NIH3T3. It counts as cell-based. Conditions: 48 h of drug treatment (footnote), average of three experiments.
Text: as §1, with “500×g. Serial dilutions of cells were made from 1×10^6 to 1×10^3 cells per mL The cells were seeded in triplicate in a 96 well plate. […].” for “500×g.”
as §3

Data set [7] deals with MCF-7 (breast cancer). The data set is described as follows: MTT cytotoxicity assay, MCF-7. It counts as cell-based. Conditions: Homo sapiens, MCF7, average of three experiments.
Text: as §1, with “500×g. Serial dilutions of cells were made from 1×10^6 to 1×10^3 cells per mL The cells were seeded in triplicate in a 96 well plate. […].” for “500×g.”
as §3

The subject of data set [8] is HeLa (cervical cancer). The data set is described as follows: MTT cytotoxicity assay, HeLa. Conditions: Homo sapiens, of drug treatment (footnote), average of three experiments. It counts as cell-based.
Text: as §1, with “500×g. Serial dilutions of cells were made from 1×10^6 to 1×10^3 cells per mL The cells were seeded in triplicate in a 96 well plate. […].” for “500×g.”
as §3

Data set [9] concerns A549 (lung cancer). Kind of data set: MTT cytotoxicity assay, A549. It counts as cell-based. Conditions: Homo sapiens, 48 h of drug treatment (footnote), average of three experiments.
Text: as §1, with “500×g. Serial dilutions of cells were made from 1×10^6 to 1×10^3 cells per mL The cells were seeded in triplicate in a 96 well plate. […].” for “500×g.”
as §2

Data on eleven molecules can be found in US10392385B2, “N-((1-phenyl-9H-pyrido[3,4-b]indol-3-yl)methyl)cinnamamides as potential anticancer agents and preparation thereof” (Council of Scientific & Industrial Research, priority 2016, dated 2019).

Structures are written as SMILES.

For `COc1cc(-c2nc(CN)cc3c2[nH]c2ccccc23)cc(OC)c1OC` [Compound 21b, (1-(3,4,5-trimethoxyphenyl)-9H-pyrido[3,4-b]indol-3-yl)methanamine], the IC50 in data set [1] was 18600 nM; in data set [2], 21700 nM; in data set [3], 15100 nM.
Consider `COc1cccc2c1C(=O)c1c(O)c3c(c(O)c1C2=O)C[C@@](O)(C(=O)CO)C[C@@H]3O[C@H]1C[C@H](N)[C@H](O)[C@H](C)O1` [Doxorubicin, reference compound], for which the IC50 was greater than 500 nM in data set [4]; 670 ± 0.7 nM in data set [5]; 1720 ± 0.8 nM in [6]; 580 ± 0.2 nM in [7]; 780 ± 0.5 nM in data set [8].
Consider `NCc1cc2c([nH]c3ccccc32)c(-c2ccc(C(F)(F)F)cc2)n1` [Compound 21e], for which the half-maximal inhibitory concentration (IC50) in [1] was 12000 nM; in data set [2], 15800 nM; in data set [3], 15800 nM.
The molecule `O=C(/C=C/c1cc(F)cc(F)c1)NCc1cc2c([nH]c3ccccc32)c(-c2cccc(F)c2)n1` [Compound 1d, (E)-3-(3,5-difluorophenyl)-N-((1-(3-fluorophenyl)-9H-pyrido[3,4-b]indol-3-yl)methyl)acrylamide] had a melting point of 215 to 220 °C. Besides, in data set [5], half-maximal inhibition (IC50) required 18.2 ± 0.3 nM. 36 ± 2.3 nM corresponded to half-maximal inhibition in data set [6] (IC50). Besides, the IC50 in [7] amounted to 16.5 ± 0.6 nM. In data set [9], this molecule gave a half-inhibitory concentration (IC50) of 21 ± 1.2 nM. In data set [8], this molecule had a 50% inhibitory concentration (IC50) of 23.6 ± 0.5 nM.
`COc1ccc(-c2nc(CNC(=O)/C=C/c3ccc(O)c(OC)c3)cc3c2[nH]c2ccccc23)cc1` [Compound 3g, (E)-3-(4-hydroxy-3-methoxyphenyl)-N-((1-(4-methoxyphenyl)-9H-pyrido[3,4-b]indol-3-yl)methyl)acrylamide] yielded a melting point of 215 to 220 °C. Further, the IC50 in data set [5] was 19.8 ± 0.5 nM. In [6], this molecule registered a 50% inhibitory concentration (IC50) of 39.9 ± 1.6 nM. For the same molecule, the IC50 in [7] was found to be 17.2 ± 0.5 nM. The same molecule showed an IC50 in [9] of 21.2 ± 1.5 nM. This molecule also showed a half-inhibitory concentration (IC50) in [8] of 24.87 ± 0.2 nM.
`COc1ccc(-c2nc(CNC(=O)/C=C/c3ccc(Cl)c(Cl)c3)cc3c2[nH]c2ccccc23)cc1` [Compound 3b, (E)-3-(3,4-dichlorophenyl)-N-((1-(4-methoxyphenyl)-9H-pyrido[3,4-b]indol-3-yl)methyl)acrylamide] gave a melting point of 188 to 190 °C. This molecule gave an IC50 in [5] of 23 ± 0.5 nM. The molecule further gave an IC50 in data set [6] of 37.5 ± 1.4 nM. For the same molecule, half-maximal inhibition in data set [7] (IC50) required 16.4 ± 0.5 nM. 18.4 ± 0.7 nM corresponded to half-maximal inhibition in data set [9] (IC50). Besides, in data set [8], the IC50 was determined as 21.6 ± 0.4 nM.
Take `COc1cc(-c2nc(CNC(=O)/C=C/c3cc(F)cc(F)c3)cc3c2[nH]c2ccccc23)cc(OC)c1OC` [Compound 2d, (E)-3-(3,5-difluorophenyl)-N-((1-(3,4,5-trimethoxyphenyl)-9H-pyrido[3,4-b]indol-3-yl)methyl)acrylamide]: the melting point lay in the range of 228 to 230 °C. The IC50 in [5] was 24.1 ± 0.7 nM. This molecule also returned a 50% inhibitory concentration (IC50) in data set [6] of 36.3 ± 1.7 nM. Besides, it took 19.6 ± 1.1 nM to reach half-maximal inhibition in [7] (IC50). The molecule also showed an IC50 in data set [9] of 21.6 ± 1.2 nM. In [8], this molecule had an IC50 of 23.8 ± 0.3 nM.
Molecule `COc1cc(/C=C/C(=O)NCc2cc3c([nH]c4ccccc43)c(-c3cccc(F)c3)n2)cc(OC)c1OC` [Compound 1a, (E)-N-((1-(3-fluorophenyl)-9H-pyrido[3,4-b]indol-3-yl)methyl)-3-(3,4,5-trimethoxyphenyl)acrylamide] had a melting point of 148 to 150 °C. The IC50 in data set [5] was 19.8 ± 0.6 nM. For the same molecule, 36 ± 1.3 nM corresponded to half-maximal inhibition in data set [6] (IC50). In [7], this molecule gave an IC50 of 16.2 ± 1.5 nM. In data set [9], the IC50 was 17.9 ± 0.6 nM. In data set [8], this molecule came in with an IC50 of 23 ± 0.7 nM.
For the molecule `COc1ccc(-c2nc(CN)cc3c2[nH]c2ccccc23)cc1` [Compound 21c, (1-(4-methoxyphenyl)-9H-pyrido[3,4-b]indol-3-yl)methanamine], the IC50 in data set [1] was 18900 nM; in data set [2] it was 18600 nM; in data set [3] it was 17800 nM.
Regarding `COc1cc(-c2nc(CNC(=O)/C=C/c3ccc(F)cc3)cc3c2[nH]c2ccccc23)cc(OC)c1OC` [Compound 2c, (E)-3-(4-fluorophenyl)-N-((1-(3,4,5-trimethoxyphenyl)-9H-pyrido[3,4-b]indol-3-yl)methyl)acrylamide], the melting point was in the range of 214 to 218 °C. Further, the half-inhibitory concentration (IC50) in data set [5] stood at 17.2 ± 0.3 nM. This molecule also showed an IC50 in data set [6] of 43 ± 1.1 nM. Also, in data set [7], the half-maximal inhibitory concentration (IC50) worked out at 16.4 ± 0.8 nM. In addition, the half-maximal inhibitory concentration (IC50) in data set [9] turned out to be 18.7 ± 0.7 nM. 20 ± 0.5 nM corresponded to half-maximal inhibition in data set [8] (IC50).
In turn, `COc1cc(/C=C/C(=O)NCc2cc3c([nH]c4ccccc43)c(-c3cccc(F)c3)n2)ccc1O` [Compound 1g, (E)-N-((1-(3-fluorophenyl)-9H-pyrido[3,4-b]indol-3-yl)methyl)-3-(4-hydroxy-3-methoxyphenyl)acrylamide] yielded a melting point of 205 to 210 °C. In data set [5], this molecule yielded a half-maximal inhibitory concentration (IC50) of 19.4 ± 1.1 nM. Further, the IC50 in data set [6] was determined as 36.9 ± 1.9 nM. In data set [7], this molecule had a concentration for half-maximal inhibition (IC50) of 17.9 ± 0.7 nM. Moreover, half-maximal inhibition in data set [9] (IC50) required 22.4 ± 1.1 nM. Further, the concentration for half-maximal inhibition (IC50) in data set [8] was 23.9 ± 0.4 nM.

One may read the IC50 as the concentration at which inhibition is half-maximal. One may read the melting point as the temperature, or range, at which the solid turns liquid.
